Test results as given in US8916681B2, “Compound, use and method” (Medical Research Council, priority 2007, dated 2014).
“Also recorded” adds a separate entry of the source. Non-standard residues stand in square brackets, D forms with d. Residues, ends and D or L forms follow the SMILES beside them.

Tests used:
[1] = test system: serum LH and testosterone; test: Kisspeptin-10 stimulated LH and testosterone in intact male rats, icv injections; format: in vivo, rat; conditions: for LH secretory response to kisspeptin-10 (AUC): 1 nmol icv with 100 pmol kisspeptin-10, 120-min period after co-injection; for testosterone levels vs kisspeptin-10 alone: 60 min after combined injection with kisspeptin-10
Method: Adult male rats (BW: 280-310 g) bred in the vivarium of the University of Córdoba were used. The animals were maintained under constant conditions of light (14 h of light, from 0700 h) and temperature (22 C), and, before cannula implantation, were kept in groups of four rats per cage with free access to pelleted food and tap water. Experimental procedures were approved by the Córdoba University Ethical Committee for animal experimentation and were conducted in accordance with the European Union normative for care and use of experimental animals.
The animals were implanted with icy cannulae under light ether anaesthesia and caged individually thereafter. To allow delivery of compounds into the lateral cerebral ventricle, the cannulae were lowered to a depth of 4 mm beneath the surface of the skull; the insert point was 1 mm posterior and 1.2 mm lateral to bregma. Functional tests were conducted at least 24-48 h after cannula implantation.
Pharmacological tests in intact males involved 5 μl injections at 60 min intervals (icy) of 1 nmol doses of the peptide 234. The last injection was accompanied by the injection of an effective (but sub-maximal) dose of 100 pmol kisspeptin-10 (Phoenix Pharmaceuticals Ltd). Animals injected with vehicle (physiological saline) served as controls. Blood samples (250 μL) were taken by jugular venipuncture at 15- and 60-min following each icy injection. In addition, blood samples were taken immediately before initiation of the experiment (time: 0-min) and at 120-min after last injection (time: 240-min). Experimental procedures and kisspeptin doses were selected on the basis of previous studies (16, 34, 48). For each time-point, 10-12 samples were taken per group.
Serum LH levels were measured in a volume of 50 μl using a double-antibody method and radioimmunoassay kits supplied by the NIH (Dr. AF Parlow, NIDDK). Rat LH-I-10 was labeled with ^125I using Iodo-Gen precoated tubes, following the instructions of the manufacturer (Pierce), and hormone concentrations were expressed using reference preparation LH-RP-3 as standard. Intra- and inter-assay coefficients of variation were below 8 and 10%, respectively. The sensitivity of the assay was 5 pg/tube. In addition, serum testosterone (T) measurements were selectively conducted in blood samples taken 60-min after co-administration of kp-10 and peptide 234 (Time: 180-min). To this end, a commercial kit from MP Biomedicals was used, following the instructions of the manufacturer. The sensitivity of the assay was 0.1 ng/tube and the intra-assay coefficient of variation was 4.5%. For each hormone, all samples were measured in the same assay. Accuracy of hormone determinations was confirmed by assessment of rat serum samples of known hormone concentrations used as external controls.
Hormonal determinations were conducted in duplicate, with a minimal total number of 10 samples per group. When appropriate, in addition to individual time-point measurements, integrated LH secretory responses were calculated as the area under the curve (AUC), following the trapezoidal rule. Hormonal data are presented as mean±SEM. Results were analyzed for statistically significant differences using Student t-test or ANOVA followed by Student-Newman-Keuls multiple range test (SigmaStat 2.0). P≦0.05 was considered significant.

[2] = biological target: T1, GnRH receptors (Homo sapiens, UniProt P30968); test: Binding to GnRH receptors (data not shown)
T1 sequence (P30968 1-328): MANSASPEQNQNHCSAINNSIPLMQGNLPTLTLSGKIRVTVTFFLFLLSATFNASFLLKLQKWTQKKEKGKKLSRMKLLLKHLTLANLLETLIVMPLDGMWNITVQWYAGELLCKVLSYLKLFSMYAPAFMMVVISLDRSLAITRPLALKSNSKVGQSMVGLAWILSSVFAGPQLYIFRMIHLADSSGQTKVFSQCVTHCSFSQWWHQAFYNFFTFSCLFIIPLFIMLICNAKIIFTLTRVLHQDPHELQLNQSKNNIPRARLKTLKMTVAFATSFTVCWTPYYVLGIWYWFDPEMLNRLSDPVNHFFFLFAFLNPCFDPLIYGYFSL

| binding to GnRH receptors [2] | Compound | serum LH levels ([1]; central injection to vehicle-treated animals at 120 min) | LH secretory response to kisspeptin-10 (AUC) [1] | LH secretory response to kisspeptin-10 (AUC) ([1]; listed as peptide 234) | basal LH levels ([1]; 1 nmol icv, 15, 60, 75 and 120 min after injection) | testosterone levels vs kisspeptin-10 alone [1] | testosterone levels vs kisspeptin-10 alone ([1]; listed as peptide 234) |
| --- | --- | --- | --- | --- | --- | --- | --- |
| – | CC(C)C[C@H](NC(=O)CNC(=O)[C@H](Cc1ccccc1)NC(=O)[C@H](CO)NC(=O)[C@H](CC(N)=O)NC(=O)[C@H](Cc1c[nH]c2ccccc12)NC(=O)[C@H](CC(N)=O)NC(=O)[C@@H](N)Cc1ccc(O)cc1)C(=O)N[C@@H](CCCNC(=N)N)C(=O)N[C@@H](Cc1ccccc1)C(N)=O [Kiss, reference compound] | evoked the expected rise | – | – | – | – | – |
| did not bind | CC(=O)N[C@H](C)C(=O)N[C@@H](CC(N)=O)C(=O)N[C@@H](Cc1c[nH]c2ccccc12)C(=O)N[C@@H](CC(N)=O)C(=O)NCC(=O)N[C@@H](Cc1ccccc1)C(=O)NCC(=O)N[C@H](Cc1c[nH]c2ccccc12)C(=O)N[C@@H](CCCNC(=N)N)C(=O)N[C@@H](Cc1ccccc1)C(N)=O [Peptide 234] (Ac-[dA]NWNGFG[dW]RF-NH2) | – | inhibits; also recorded: blocked | significantly blunted | did not significantly modify | blocked | lower |
